Experiments:
[1] = system: corn; assay: Test C postemergence; assay type: in vivo, Zea mays; conditions: for Corn plant response rating / Plant response rating, Corn: scale 0 to 100 (0 no effect, 100 complete control)
Outline: (§1)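 Rated visually on 0–100 (100 = complete control) after 13–15 days under glass. Treatments went onto freshly seeded loam/sand soil or onto emerged plants at the 1- to 4-leaf stage, using a surfactant-containing solvent formulation.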

[2] = system: velvetleaf; assay: Test A preemergence; assay type: in vivo, Abutilon theophrasti
Outline: (§2)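 Pre- and postemergence greenhouse screen. Soil: loam + sand. Spray carrier: solvent mixture, non-phytotoxic, with surfactant. Post timing at 1–2 leaves, height 2–10 cm. Readout: visual injury on a 0–100 scale roughly 10 days after application, untreated plants as reference.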

[3] = system: large (Lg) crabgrass; assay: Test C postemergence; assay type: in vivo, Digitaria sanguinalis; conditions: for Crabgrass, Large plant response rating / Plant response rating, Crabgrass, Large: scale 0 to 100 (0 no effect, 100 complete control)
Outline: as §1

[4] = system: wheat, winter; assay: Test C postemergence; assay type: in vivo, Triticum aestivum; conditions: for Wheat plant response rating / Plant response rating, Wheat: scale 0 to 100 (0 no effect, 100 complete control)
Outline: as §1

[5] = system: chickweed; assay: Test C postemergence; assay type: in vivo, Stellaria media; conditions: for Chickweed plant response rating / Plant response rating, Chickweed: scale 0 to 100 (0 no effect, 100 complete control)
Outline: as §1

[6] = system: waterhemp; assay: Test C postemergence; assay type: in vivo, Amaranthus rudis; conditions: for Waterhemp plant response rating / Plant response rating, Waterhemp: scale 0 to 100 (0 no effect, 100 complete control)
Outline: as §1

[7] = system: barnyardgrass; assay: Test B flooded paddy test; assay type: in vivo, Echinochloa crus-galli; conditions: Flood, 250 g ai/ha; 0 to 100 scale where 0 is no effect and 100 is complete control
Outline: (§3)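 Post-emergence paddy-water application at the 2-leaf stage, with 3 cm flood kept for the whole test. Response was judged visually relative to controls after 13 to 15 greenhouse days, 0 indicating no effect and 100 complete control.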

[8] = system: pigweed; assay: Test A postemergence; assay type: in vivo, Amaranthus retroflexus
Outline: as §2

[9] = system: sedge, umbrella; assay: Test B flooded paddy test; assay type: in vivo, Cyperus difformis; conditions: Flood, 250 g ai/ha; 0 to 100 scale where 0 is no effect and 100 is complete control
Outline: as §3

[10] = system: barnyardgrass; assay: Test C postemergence; assay type: in vivo, Echinochloa crus-galli; conditions: for Barnyardgrass plant response rating / Plant response rating, Barnyardgrass: scale 0 to 100 (0 no effect, 100 complete control)
Outline: as §1

[11] = system: pigweed; assay: Test A preemergence; assay type: in vivo, Amaranthus retroflexus
Outline: as §2

[12] = system: Heteranthera limosa; assay: Test B flooded paddy test; assay type: in vivo; conditions: Flood, 250 g ai/ha; 0 to 100 scale where 0 is no effect and 100 is complete control
Outline: as §3

[13] = system: oilseed rape; assay: Test C postemergence; assay type: in vivo, Brassica napus; conditions: for Oilseed Rape plant response rating / Plant response rating, Oilseed Rape: scale 0 to 100 (0 no effect, 100 complete control)
Outline: as §1

[14] = system: morningglory; assay: Test A postemergence; assay type: in vivo, Ipomoea spp.
Outline: as §2

[15] = system: johnsongrass; assay: Test C postemergence; assay type: in vivo, Sorghum halepense; conditions: for Johnsongrass plant response rating / Plant response rating, Johnsongrass: scale 0 to 100 (0 no effect, 100 complete control)
Outline: as §1

[16] = 31 g ai/ha, postemergence, visual rating, 13 to 15 days
[17] = 125 g ai/ha, postemergence, visual rating
[18] = Postemergence, 62 g ai/ha, 13 to 15 days
[19] = 500 g ai/ha, 0 to 100 scale where 0 is no effect and 100 is complete control
[20] = 125 g ai/ha, 0 to 100 scale where 0 is no effect and 100 is complete control
[21] = 16 g ai/ha, postemergence, visual rating, 13 to 15 days
[22] = Postemergence, 31 g ai/ha, 13 to 15 days
[23] = 8 g ai/ha, postemergence, 0 is no effect, 100 is complete control
[24] = 16 g ai/ha, postemergence, 0 is no effect, 100 is complete control
[25] = 1000 g ai/ha, 0 to 100 scale, 0 no effect, 100 complete control, approx. 10 days
[26] = 1000 g ai/ha, 0 to 100 scale, 0 no effect, 100 complete control

SMILES: N#Cc1cnn(-c2c(C#N)cccc2Oc2ncc(Cl)cn2)c1 [Compound 200]
- Corn plant response rating [1, 16]: 5
- Plant response rating, Corn [1, 17]: 15
- Plant response rating (0 to 100), Corn ([1]; 250 g ai/ha, postemergence): 20
- Plant response rating, Corn [1, 18]: 10
- Velvetleaf plant response rating (0 to 100 scale) ([2]; 125 g ai/ha): 100
- Velvetleaf plant response rating [2, 19]: 100
- Crabgrass, Large plant response rating [3, 16]: 5
- Plant response rating, Crabgrass, Large [3, 17]: 15
- Plant response rating (0 to 100), Crabgrass, Large ([3]; 250 g ai/ha, postemergence): 20
- Plant response rating, Crabgrass, Large [3, 18]: 5
- Wheat plant response rating [4, 16]: 0
- Plant response rating, Wheat [4, 17]: 5
- Plant response rating (0 to 100), Wheat ([4]; 250 g ai/ha, postemergence): 5
- Plant response rating, Wheat [4, 18]: 0
- Chickweed plant response rating [5, 16]: 55
- Plant response rating, Chickweed [5, 17]: 95
- Plant response rating (0 to 100), Chickweed ([5]; 250 g ai/ha, postemergence): 98
- Plant response rating, Chickweed [5, 18]: 75
- Waterhemp plant response rating [6, 16]: 70
- Plant response rating, Waterhemp [6, 17]: 90
- Plant response rating (0 to 100), Waterhemp ([6]; 250 g ai/ha, postemergence): 95
- Plant response rating, Waterhemp [6, 18]: 98
- Plant response rating, Barnyardgrass [7]: 20
- Pigweed plant response rating [8, 20]: 100
- Plant response rating, Pigweed [8, 19]: 100
- Plant response rating, Sedge, Umbrella [9]: 85
- Barnyardgrass plant response rating [10, 16]: 0
- Plant response rating, Barnyardgrass [10, 17]: 10
- Plant response rating (0 to 100), Barnyardgrass ([10]; 250 g ai/ha, postemergence): 15
- Plant response rating, Barnyardgrass ([10]; Postemergence, 62 g ai/ha): 5
- Pigweed plant response rating (0 to 100 scale) ([11]; 125 g ai/ha): 100
- Pigweed plant response rating [11, 19]: 100
- Plant response rating, Ducksalad [12]: 95
- Oilseed Rape plant response rating [13, 16]: 55
- Plant response rating, Oilseed Rape [13, 17]: 50
- Plant response rating (0 to 100), Oilseed Rape ([13]; 250 g ai/ha, postemergence): 70
- Plant response rating, Oilseed Rape [13, 18]: 55
- Morningglory plant response rating [14, 20]: 90
- Plant response rating, Morningglory [14, 19]: 100
- Johnsongrass plant response rating [15, 16]: 5
- Plant response rating, Johnsongrass [15, 17]: 5
- Plant response rating (0 to 100), Johnsongrass ([15]; 250 g ai/ha, postemergence): 30
- Plant response rating, Johnsongrass [15, 18]: 5

SMILES: FC(F)Oc1cnn(-c2ccccc2Oc2ncc(Cl)cn2)c1 [Compound 98]
- Corn plant response rating [1, 21]: 5
- Plant response rating (0 to 100), Corn ([1]; 125 g ai/ha, postemergence): 20
- Plant response rating, Corn [1, 22]: 10
- Plant response rating, Corn ([1]; Postemergence, 62 g ai/ha): 5
- Plant response rating, Velvetleaf [2, 20]: 90
- Crabgrass, Large plant response rating [3, 21]: 5
- Plant response rating (0 to 100), Crabgrass, Large ([3]; 125 g ai/ha, postemergence): 5
- Plant response rating, Crabgrass, Large [3, 22]: 5
- Plant response rating, Crabgrass, Large ([3]; Postemergence, 62 g ai/ha): 5
- Plant response rating (0 to 100), Wheat ([4]; 125 g ai/ha, postemergence): 10
- Plant response rating, Wheat [4, 22]: 0
- Plant response rating, Wheat ([4]; Postemergence, 62 g ai/ha): 5
- Chickweed plant response rating [5, 21]: 30
- Plant response rating (0 to 100), Chickweed ([5]; 125 g ai/ha, postemergence): 85
- Plant response rating, Chickweed [5, 22]: 50
- Plant response rating, Chickweed ([5]; Postemergence, 62 g ai/ha): 75
- Plant response rating (0 to 100), Waterhemp ([6]; 125 g ai/ha, postemergence): 85
- Plant response rating, Waterhemp [6, 22]: 50
- Plant response rating, Waterhemp ([6]; Postemergence, 62 g ai/ha): 80
- Plant response rating, Barnyardgrass [7]: 35
- Plant response rating, Pigweed [8, 19]: 100
- Plant response rating, Sedge, Umbrella [9]: 85
- Barnyardgrass plant response rating [10, 21]: 5
- Plant response rating (0 to 100), Barnyardgrass ([10]; 125 g ai/ha, postemergence): 15
- Plant response rating, Barnyardgrass [10, 22]: 5
- Plant response rating, Barnyardgrass ([10]; Postemergence, 62 g ai/ha): 10
- Plant response rating, Pigweed [11, 20]: 100
- Pigweed plant response rating ([11]; 500 g ai/ha, 0 to 100 scale, 0 no effect, 100 complete control, approx. 10 days): 100
- Plant response rating, Ducksalad [12]: 85
- Plant response rating (0 to 100), Oilseed Rape ([13]; 125 g ai/ha, postemergence): 98
- Plant response rating, Oilseed Rape [13, 22]: 80
- Plant response rating, Oilseed Rape ([13]; Postemergence, 62 g ai/ha): 95
- Plant response rating, Morningglory [14, 19]: 100
- Johnsongrass plant response rating [15, 21]: 0
- Plant response rating (0 to 100), Johnsongrass ([15]; 125 g ai/ha, postemergence): 10
- Plant response rating, Johnsongrass [15, 22]: 0
- Plant response rating, Johnsongrass ([15]; Postemergence, 62 g ai/ha): 5

SMILES: Clc1cnc(Oc2ccccc2-n2cc(I)nn2)nc1 [Compound 222]
- Plant response rating (0 to 100), Corn [1, 23]: 0
- Plant response rating (0 to 100), Corn [1, 24]: 5
- Corn plant response rating [1, 16]: 5
- Plant response rating, Corn [1, 18]: 0
- Velvetleaf plant response rating [2, 25]: 100
- Plant response rating (0 to 100), Crabgrass, Large [3, 23]: 5
- Plant response rating (0 to 100), Crabgrass, Large [3, 24]: 5
- Crabgrass, Large plant response rating [3, 16]: 5
- Plant response rating, Crabgrass, Large [3, 18]: 5
- Plant response rating (0 to 100), Wheat [4, 23]: 0
- Plant response rating (0 to 100), Wheat [4, 24]: 0
- Wheat plant response rating [4, 16]: 0
- Plant response rating, Wheat [4, 18]: 5
- Plant response rating (0 to 100), Chickweed [5, 23]: 10
- Plant response rating (0 to 100), Chickweed [5, 24]: 60
- Chickweed plant response rating [5, 16]: 85
- Plant response rating, Chickweed [5, 18]: 100
- Plant response rating (0 to 100), Waterhemp [6, 23]: 60
- Plant response rating (0 to 100), Waterhemp [6, 24]: 70
- Waterhemp plant response rating [6, 16]: 90
- Plant response rating, Waterhemp [6, 18]: 90
- Plant response rating, Barnyardgrass [7]: 0
- Plant response rating, Pigweed [8, 26]: 100
- Plant response rating, Sedge, Umbrella [9]: 70
- Plant response rating (0 to 100), Barnyardgrass [10, 23]: 5
- Plant response rating (0 to 100), Barnyardgrass [10, 24]: 5
- Barnyardgrass plant response rating [10, 16]: 10
- Plant response rating, Barnyardgrass ([10]; Postemergence, 62 g ai/ha): 15
- Pigweed plant response rating [11, 25]: 100
- Plant response rating, Ducksalad [12]: 50
- Plant response rating (0 to 100), Oilseed Rape [13, 23]: 10
- Plant response rating (0 to 100), Oilseed Rape [13, 24]: 5
- Oilseed Rape plant response rating [13, 16]: 10
- Plant response rating, Oilseed Rape [13, 18]: 20
- Plant response rating, Morningglory [14, 26]: 100
- Plant response rating (0 to 100), Johnsongrass [15, 23]: 0
- Plant response rating (0 to 100), Johnsongrass [15, 24]: 0
- Johnsongrass plant response rating [15, 16]: 10
- Plant response rating, Johnsongrass [15, 18]: 10

Source: patent US9695155B2, “Herbicidal substituted pyrimidinyloxy benzene compounds” (E. I. DU PONT DE NEMOURS AND COMPANY, priority 2013, dated 2017)
